These results are taken from patent US11523998B2, “Anti-inflammatory formulations and uses thereof including a combination of palmitoylethanolamide and plant-based polyphenols” (The Texas A&M University System, priority 2018, dated 2022).

Assay [1] relates to interleukin-1 beta (II-1β). Description: Il-1β mRNA expression (RT-qPCR) in LPS-activated RAW 264.7 macrophages. The format is cell-based, murine. The conditions noted are these: for reduction of IL-1β mRNA expression: 1.0 mg/L alone; for reduction of IL-1β mRNA expression, alone at same molarity: around 3.4 μM (1.0 mg/L quercetin, 0.974 mg/L luteolin). For orientation: Quantitative PCR measures a nucleic acid by following its amplification.
Description: RAW 264.7 murine macrophage cell line was purchased from American Type Culture Collection (ATCC-TIB71). Cells were cultured in high glucose Dulbecco's Modified Eagle Medium (DMEM) supplemented with stable glutamine (0.0584%) and sodium pyruvate (0.011%), 10% (v/v) heat-inactivated fetal bovine serum, and 1% (v/v) penicillin/streptomycin mix. Cells were maintained in an incubator at 37° C. with 5% CO2, and the medium was changed every two days. All assays were conducted in cells between the 3rd and the 15th passage. All treatments with PEA and other polyphenols were solubilized in dimethyl sulfoxide (DMSO) and further diluted in complete culture media immediately before use. LPS (10 ng mL-1) was used to induce inflammation in RAW 264.7 cultures.
Murine RAW 264.7 macrophage cells (1×10^5 cells per well) were seeded in 12-well plates and incubated for 24 hours. Cells were pre-treated with Palmitoylethanolamide (PEA) and other compounds of interest for 1 hour and then lipopolysaccharide (LPS), a major activating agent of macrophages, was added for a final concentration of 10 ng·mL-1. Cells were then incubated for 8 hours. Negative control (culture media only) and positive (LPS) controls, as well as a Vehicle (DMSO at a maximal concentration of 0.2%)+LPS were also performed. Total RNA was extracted and purified using an RNeasy mini kit (QIAGEN, Venlo, Netherlands) according to the manufacturer's protocol. mRNA quality and quantification were assessed with NanoDrop® ND-1000 (NanoDrop Technologies, Wilmington, Del., USA). cDNA synthesis was performed with the iScript Reverse Transcription Supermix (Bio-Rad Laboratories, Hercules, Calif., USA) according to the manufacturer's protocol. RT-qPCR reactions were performed using iTaq Universal Probes Supermix (Bio-Rad Laboratories, Hercules, Calif., USA). mRNA expression cyclooxygenase-2 (Cox-2) and interleukin-1 beta (II-1β) were analyzed using beta-actin (Actb) as a reference gene. The levels of transcripts were calculated relative to the control group by the 2-ΔΔCt method.
(§1) All data were analyzed by one-way analysis of variance (ANOVA) with Dunnet's or Sidak's posttest using GraphPad Prism 6.0 (GraphPad Software, La Jolla, Calif., USA).

The subject of the next assay is cyclooxygenase-2 (Cox-2). Description: Cox-2 mRNA expression (RT-qPCR) in LPS-activated RAW 264.7 macrophages. The format is cell-based, murine. As to conditions: LPS 10 ng/mL; for downregulation of Cox-2 mRNA expression, compound alone: 9 h.

Description for cyclooxygenase-2 (Cox-2): Cells were maintained in an incubator at 37° C. with 5% CO2, and the medium was changed every two days. All assays were conducted in cells between the 3rd and the 15th passage. All treatments with PEA and other polyphenols were solubilized in dimethyl sulfoxide (DMSO) and further diluted in complete culture media immediately before use.
Cells were pre-treated with Palmitoylethanolamide (PEA) and other compounds of interest for 1 hour and then lipopolysaccharide (LPS), a major activating agent of macrophages, was added for a final concentration of 10 ng·mL-1. Cells were then incubated for 8 hours. Negative control (culture media only) and positive (LPS) controls, as well as a Vehicle (DMSO at a maximal concentration of 0.2%)+LPS were also performed. Total RNA was extracted and purified using an RNeasy mini kit (QIAGEN, Venlo, Netherlands) according to the manufacturer's protocol. mRNA quality and quantification were assessed with NanoDrop® ND-1000 (NanoDrop Technologies, Wilmington, Del., USA). cDNA synthesis was performed with the iScript Reverse Transcription Supermix (Bio-Rad Laboratories, Hercules, Calif., USA) according to the manufacturer's protocol. RT-qPCR reactions were performed using iTaq Universal Probes Supermix (Bio-Rad Laboratories, Hercules, Calif., USA). mRNA expression cyclooxygenase-2 (Cox-2) and interleukin-1 beta (II-1β) were analyzed using beta-actin (Actb) as a reference gene. The levels of transcripts were calculated relative to the control group by the 2-ΔΔCt method.
as §1

As to `CCCCCCCCCCCCCCCC(=O)NCCO` [PEA, N-(2-Hydroxyethyl)hexadecanamide], the “reduction of II-1β expression” value in assay [1] (0.5 mg/L alone, LPS 10 ng/mL) amounted to 28%. In addition, the “expression of the inflammatory cytokine II-1β” value in assay [1] (PEA 2.0 mg/L, after 1.0-10 ng/mL LPS) was “significantly decrease”. The “lowest effective concentration of compound alone (II-1β expression)” value (from here on “lowest effective concentration”) in assay [1] (LPS 10 ng/mL, 9 h) came out at 0.5 mg/L. In addition, in the assay with cyclooxygenase-2 (Cox-2) (PEA 2.0 mg/L), the “expression of Cox-2” value was “significantly decrease”.

As for `COc1cc(CNC(=O)CCCC/C=C/C(C)C)ccc1O` [capsaicin], in assay [1] (alone, LPS 10 ng/mL, 9 h), the “expression of IL-1β, compound alone (screening)” value was “significant reduction”. Moreover, the “expression of IL-1β, in combination with PEA (screening)” value in assay [1] (in combination with PEA, LPS 10 ng/mL, 9 h) is given as “significant reduction”.

On to `COc1cc(/C=C/C(=O)CC(=O)/C=C/c2ccc(O)c(OC)c2)ccc1O` [curcumin], for which the “reduction of IL-1β mRNA expression” value in assay [1] (LPS 10 ng/mL) is recorded as around 57%. Also, in assay [1] (LPS 10 ng/mL, 9 h), the “lowest effective concentration” value is on record as 1.0 mg/L.

As to `CC(C)Cc1ccc(C(C)C(=O)O)cc1` (centres unmarked) [ibuprofen], in assay [1] (tested concentration, LPS 10 ng/mL, 9 h), the “inflammatory state of the cells (II-1β and Cox-2 expression, screening)” value is listed as “did not improve the inflammatory state of the cells”.

`O=c1cc(-c2ccc(O)c(O)c2)oc2cc(O)cc(O)c12` [luteolin]: in assay [1] (alone, 9 h), the “reduction of IL-1β mRNA expression, alone at same molarity” value was determined as 50%.

As for `O=c1c(O)c(-c2ccc(O)c(O)c2)oc2cc(O)cc(O)c12` [quercetin], the “reduction of IL-1β mRNA expression” value in assay [1] (LPS 10 ng/mL) is given as “around 45%”. In assay [1] (alone, 9 h), the “reduction of IL-1β mRNA expression, alone at same molarity” value amounted to 78%. For the same molecule, in assay [1] (LPS 10 ng/mL, 9 h), the “lowest effective concentration” value is 1.0 mg/L.

As for `Oc1ccc(C=Cc2cc(O)cc(O)c2)cc1` [resveratrol], the “downregulation of II-1β mRNA expression, compound alone” value is listed as “did not reduce” in assay [1] (alone, LPS 10 ng/mL, 9 h) and “no downregulation” in assay [1] (alone, LPS 10 ng/mL, 9 h, listed as Resveratrol). The “downregulation of Cox-2 mRNA expression, compound alone” value with cyclooxygenase-2 (Cox-2) was “did not reduce”; with cyclooxygenase-2 (Cox-2) (listed as Resveratrol) it was “no downregulation”.
